Laboratory results as given in publication PMC9610990, “Inhibitory Activity of Bioactive Phloroglucinols from the Rhizomes of Dryopteris crassirhizoma on Escherichia coli β-Glucuronidase: Kinetic Analysis and Molecular Docking Studies” (Metabolites, 2022).
Like-named read-outs stand apart in the source and are kept apart here.

Assays:
[1] = target: T1, β-Glucuronidase from E. coli (Escherichia coli, UniProt P05804); test: β-Glucuronidase inhibitory activity assay with PNPG substrate; details: for inhibition at 100 µM: read-out: Inhibition of Compounds on β-glucuronidase, Inhibition at 100 μM (%); for Inhibition of Compounds on β-glucuronidase, Inhibition at 100 μM (%): compound at 100 μM
T1 sequence (P05804 whole entry): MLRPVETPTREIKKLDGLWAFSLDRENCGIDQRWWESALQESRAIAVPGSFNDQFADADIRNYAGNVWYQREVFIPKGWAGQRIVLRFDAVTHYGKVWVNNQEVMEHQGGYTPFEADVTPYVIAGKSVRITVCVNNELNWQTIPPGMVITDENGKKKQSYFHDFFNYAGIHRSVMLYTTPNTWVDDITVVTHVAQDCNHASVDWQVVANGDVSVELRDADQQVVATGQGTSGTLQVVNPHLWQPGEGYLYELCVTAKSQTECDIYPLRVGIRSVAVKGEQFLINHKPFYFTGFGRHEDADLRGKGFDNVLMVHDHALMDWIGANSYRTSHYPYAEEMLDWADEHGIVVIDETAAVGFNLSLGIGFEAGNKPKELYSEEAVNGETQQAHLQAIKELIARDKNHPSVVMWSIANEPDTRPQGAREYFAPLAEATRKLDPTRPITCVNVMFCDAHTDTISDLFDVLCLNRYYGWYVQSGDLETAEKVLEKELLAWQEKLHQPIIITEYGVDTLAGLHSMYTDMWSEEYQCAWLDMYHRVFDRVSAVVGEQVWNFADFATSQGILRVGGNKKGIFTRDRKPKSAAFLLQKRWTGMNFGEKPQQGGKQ

[2] = target: T1, β-Glucuronidase from E. coli; test: Inhibition kinetic analysis with β-glucuronidase (Lineweaver–Burk and Dixon plots); format: biochemical; details: for Ki: determined by Dixon plots; for Inhibition Type: determined by Lineweaver–Burk plots
Protocol: To identify the inhibition mode of the active compounds on β-glucuronidase, two enzyme kinetic methodologies, the Lineweaver-Burk and Dixon methods, were used. The mode of β-glucuronidase inhibition was determined using a Lineweaver–Burk plot (or double reciprocal plot) at various concentrations of the substrate in the absence or presence of the test compound (concentrations: 0, 10, 20, 40, 60, and 80 µM for 13 and 15; 0, 7.5, 15, 30, 60, and 80 µM for 14; 0, 5, 10, 20, 40, and 60 µM for 26 and 27; and 0, 2.5, 5, 10, 20, and 40 µM for 28). The enzymatic reactions at various concentrations of the test compounds were evaluated by monitoring the effects of different substrate concentrations using Dixon plots (or single reciprocal plots) (0.25, 0.5, 1, and 2.5 mM). Ki values were determined by analyzing the Dixon plot, where the x-axis value was taken as Ki.

PTP1B enzyme = system: PTP1B enzyme; set-up: method as in PMID 34416263; details: in words; cited from earlier work
[3] = system: neuraminidase of influenza virus H5N1; details: read-out: inhibitory effect on neuraminidase IC50; cited from earlier work
[4] = system: B16F10 murine melanoma cells; set-up: method as in doi:10.1016/j.phytol.2017.05.022; details: read-out: inhibition of melanin production IC50; cited from earlier work
[5] = PNPG substrate, mean ± SEM of three independent experiments
[6] = read-out: Inhibition of Compounds on β-glucuronidase, IC50, PNPG substrate, mean ± SEM of three independent experiments

Row | Molecule | IC50 [1] [µM] | inhibition at 100 µM [1] [%] | also measured
1 | CCCC(=O)c1c(O)c(CC2=C(O)C(C)(C)C(O)=C(C(C)=O)C2=O)c(O)c(Cc2c(O)c(CC3=C(O)C(C)(C)C(O)=C(C(C)=O)C3=O)c(O)c(C(=O)CCC)c2O)c1O [Compound 30, dryocrassin ABBA] | 94.9 ± 2.5 | 51.8 ± 2.7 | –
2 | CCCC(=O)c1c(O)c(C)c(O)c(Cc2c(O)c(CC3=C(O)C(C)(C)C(O)=C(C(C)=O)C3=O)c(O)c(C(=O)CCC)c2O)c1O [Compound 27, trisflavaspidic acid ABB] | 7.1 ± 2.6 | 101.2 ± 0.6 | Ki [2]: 0.5 µM; Inhibition Type [2]: Competitive; activity toward the PTP1B enzyme (PTP1B enzyme): significant activity
3 | 1-(2, 4, 6-trihydroxy-3-methylphenyl) butanone [Compound 8] | – | – | Inhibition of Compounds on β-glucuronidase, Inhibition at 100 μM (%) [1, 5]: 24.9 ± 5.5%; IC50 [1, 6]: > 100 µM
4 | CCCC(=O)c1c(O)cc(O)c(C(=O)CCC)c1O [Compound 6, 1,3-(2,4,6-trihydroxyphenyl)dibutanone] | > 100 | 33.7 ± 2.3 | –
5 | CCCC(=O)c1c(O)c(C)c(O)c(CC2=C(O)C(C)(C)C(O)=C(C(C)=O)C2=O)c1O [Compound 22, flavaspidic acid AB] | > 100 | 48.7 ± 4.8 | –
6 | CCC(=O)c1c(O)cc(O)c(CC2=C(O)C(C)(C)C(O)=C(C(C)=O)C2=O)c1O [Compound 16, norflavaspidic acid AP] | 64.4 ± 3.5 | 68.3 ± 0.2 | –
7 | O=C(O)[C@@H](O)[C@H]1OC(=O)[C@H](O)[C@H]1O [DSA, D-saccharic acid 1,4-lactone, reference compound] | 23.4 ± 1.5 | 79 ± 0.3 | –
8 | CC(=O)c1c(O)cc(O)c(C(C)=O)c1O [Compound 4, 5-acetyl-2,4,6-trihydroxyacetophenone] | > 100 | 22.1 ± 2.4 | –
9 | CCC(=O)c1c(O)c(C)c(O)c(CC2=C(O)C(C)(C)C(O)=C(C(C)=O)C2=O)c1O [Compound 21, flavaspidic acid AP] | > 100 | 47.9 ± 4.7 | –
10 | CCCC(=O)c1c(O)cc(O)c(Cc2c(O)cc(O)c(C(=O)CC)c2O)c1O [Compound 13, dryopidin PB] | 18.1 ± 1.5 | 93.7 ± 0.3 | Ki [2]: 6.3 µM; Inhibition Type [2]: Competitive
11 | CCCC(=O)c1c(O)cc(O)c(Cc2c(O)c(C)c(O)c(C(=O)CCC)c2O)c1O [Compound 15, araspidin BB] | 17 ± 2.5 | 89.1 ± 0.3 | Ki [2]: 25.8 µM; Inhibition Type [2]: Competitive
12 | CCCC(=O)C1=C(O)C(C)(C)C(O)=C(Cc2c(O)c(Cc3c(O)c(C)c(O)c(C(=O)CCC)c3O)c(O)c(C(=O)CCC)c2O)C1=O [Compound 28, trisflavaspidic acid BBB] | 5.6 ± 1.1 | 106 ± 3.4 | Ki [2]: 2.8 µM; Inhibition Type [2]: Competitive; activity toward the PTP1B enzyme (PTP1B enzyme): significant activity
13 | CCCC(=O)c1c(O)cc(O)c(Cc2c(O)c(CC3=C(O)C(C)(C)C(O)=C(C(C)=O)C3=O)c(O)c(C(=O)CCC)c2O)c1O [Compound 26, nortrisflavaspidic acid ABB] | 8 ± 1.8 | 98.1 ± 2.5 | IC50 [3]: 51.5 µM; Ki [2]: 7.5 µM; Inhibition Type [2]: Competitive; activity toward the PTP1B enzyme (PTP1B enzyme): significant activity
14 | CCCC(=O)c1c(O)cc(O)cc1O [Compound 3, phlorobutyrophenone] | > 100 | 22 ± 2.1 | –
15 | CC(=O)c1c(O)cc(O)cc1O [Compound 1, 2,4,6-trihydroxy-acetophenone] | > 100 | 11.6 ± 3.9 | –
16 | CCCC(=O)c1c(O)c(C(=O)CCC)c(O)c(C(=O)CCC)c1O [Compound 11, tributyrylphloroglucinol] | 43 ± 2.9 | 87.3 ± 3.4 | –
17 | CCCC(=O)c1c(O)cc(O)c(-c2c(O)cc(O)c(C(=O)CCC)c2O)c1O [Compound 12, bis-phlorobutyrophenone] | > 100 | 34.1 ± 0.5 | –
18 | CCCC(=O)c1c(O)cc(O)c(CC2=C(O)C(C)(C)C(O)=C(C(C)=O)C2=O)c1O [Compound 17, norflavaspidic acid AB] | 67 ± 1.3 | 65.1 ± 0.1 | –
19 | CCCC(=O)c1c(O)c(CC2=C(O)C(C)(C)C(O)=C(C(C)=O)C2=O)c(O)c(C2CCCN2C(=N)N)c1O (centres unmarked) [Compound 25, dryopcrassirine AB] | > 100 | 30.7 ± 1.7 | –
20 | CCCC(=O)C1=C(O)C(C)(C)C(O)=C(Cc2c(O)cc(O)c(C(=O)CCC)c2O)C1=O [Compound 19, norflavaspidic acid BB] | > 100 | 41 ± 1.4 | –
21 | CCC(=O)c1c(O)cc(O)c(C(=O)CC)c1O [Compound 5, 1,3-(2,4,6-trihydroxyphenyl)dipropanone] | > 100 | 27.1 ± 0.4 | –
22 | CCCC(=O)c1c(O)cc(O)c(CC2=C(O)C(C)(C)C(O)=C(C(=O)CC)C2=O)c1O [Compound 18, norflavaspidic acid PB] | > 100 | 42.2 ± 0.1 | IC50 [4]: 35.7 µM
23 | CCCC(=O)c1c(O)cc(O)c(Cc2c(O)cc(O)c(C(=O)CCC)c2O)c1O [Compound 14, methylene-bis-phlorobutyrophenone] | 14.4 ± 0.6 | 97.1 ± 0.7 | Ki [2]: 4.3 µM; Inhibition Type [2]: Competitive
24 | CCC(=O)c1c(O)c(C(=O)CC)c(O)c(C(=O)CC)c1O [Compound 10, tripropionylphloroglucinol] | > 100 | 41.4 ± 1.7 | –
25 | CCCC(=O)c1c(O)c(C)c(O)c(CC2=C(O)C(C)(C)C(O)=C(C(=O)CC)C2=O)c1O [Compound 23, flavaspidic acid PB] | 76.5 ± 1.5 | 73.5 ± 0.7 | IC50 [4]: 38.9 µM
26 | CCCC(=O)c1c(O)c(CC2=C(O)C(C)(C)C(O)=C(C(C)=O)C2=O)c(O)c(CC2=C(O)C(C)(C)C(O)=C(C(C)=O)C2=O)c1O [Compound 29, filixic acid ABA] | 90.5 ± 2.7 | 53.4 ± 2.3 | IC50 [3]: 29.6 µM
27 | CC(=O)C1=C(O)C(C)(C)C(O)=C(Cc2c(O)c(C)c(O)c(C(C)=O)c2O)C1=O [Compound 20, flavaspidic acid AA] | 75.7 ± 1.2 | 76.1 ± 3.4 | –
28 | CCC(=O)c1c(O)cc(O)cc1O [Compound 2, 1-(2,4,6-trihydroxy-phenyl)-propan-1-one] | > 100 | 24.4 ± 0.2 | –
29 | 1-(2,4,6-trihydroxy-3-methylphenyl)propanone [Compound 7] | – | – | Inhibition of Compounds on β-glucuronidase, Inhibition at 100 μM (%) [1, 5]: 26.7 ± 1.5%; IC50 [1, 6]: > 100 µM
